{"source": "patent US20240360107A1", "about": "“AN EIF4A INHIBITOR WITH A NOVEL MECHANISM OF ACTION” (ARIZONA BOARD OF REGENTS ON BEHALF OF THE UNIVERSITY OF …, priority 2021, published 2024)", "key": {"eIF4A [1]": {"target": "T1, eIF4A (Homo sapiens, UniProt P60842)", "experiment": "MANT-ATP fluorescence polarization assay", "format": "binding", "design": "6xHis with TEV protease site (N, cleaved yes); made in house; host or cells: E. coli BL21-CodonPlus", "conditions": "compound 200 μM or ADP 1 mM; MANT-ATP 100 nM", "protocol": "Additional biochemical testing was performed on compound 28 to investigate its mechanism of eIF4A inhibition. Initially, kinetics experiments were repeated with compound 28, and the results for compound 28 matched those of compound 1 (FIG. 5D, 4A). Upon addition of compound 28, Km and Vmax of eIF4A decreased with respect to ATP. With respect to RNA, eIF4A Km […] and Vmax remained constant. […] Fluorescence polarization (FP) assays were utilized to confirm this mechanism of inhibition by testing the ability of compound 28 to compete fluorescent substrates off eIF4A. First, an FP assay was performed with MANT-ATP, a fluorescent, non-hydrolysable ATP analog, as the substrate.\nMANT-ATP fluorescence polarization assay. Recombinant eIF4A (15 μM) was added to a low-volume black 384 well plate (Greiner). Yeast RNA (0.25 mg/mL) was added along with compound (200 μM) or ADP (1 mM) and the plate was incubated for 20 min. MANT-ATP was added (100 nM) and the plate was incubated for 30 min before fluorescence polarization was read at 355 nm:448 nm (Ex:Em) on a SpectraMax iD5 plate reader (Molecular Devices)."}, "eIF4A [2]": {"target": "T1, eIF4A", "experiment": "Thermal Shift Assay (TSA)/Differential Scanning Fluorimetry (DSF)", "format": "binding", "design": "6xHis with TEV protease site (N, cleaved yes); made in house; host or cells: E. coli BL21-CodonPlus", "conditions": "5 μM eIF4A, 2 mM AMPPNP", "protocol": "Further evidence of this was uncovered in a thermal shift assay (TSA) using DSF with eIF4A and compound 28. […] Larger doses of compound 28 caused larger melting temperature (Tm) shifts in this assay, which argues that compound 28 is directly binding eIF4A.\nThermal Shift Assay (TSA)/Differential Scanning Fluorimetry (DSF). TSA/DSF experiments were performed on a Lightcycler 480 II (Roche Molecular Systems). eIF4A (5 μM) in buffer (20 mM Tris (pH 7.5), 10% glycerol, 0.1 mM EDTA, 2 mM DTT, 2 mM AMPPNP, 4% DMSO) was added to 96-well PCR plates (USA Scientific, Inc.) with or without compound. After a 5 min incubation, SYPRO orange dye was added to a final concentration of 5×. Samples were melted over a gradient from 20 to 85° C. with 20 acquisitions per ° C. at a ramp rate of 0.03° C./s."}, "eIF4A [3]": {"target": "T1, eIF4A", "experiment": "Cellular Thermal Shift Assay (CETSA) in A549 cells", "format": "cell-based", "design": "endogenous in cells; host or cells: A549 cells", "conditions": "90 min, 55° C., silvestrol 100 nM", "protocol": "In CETSA, thermal stability of a protein is assessed by heating cells and then separating insoluble, aggregated, or denatured proteins from soluble proteins through supernatant/pellet fractionation. Levels of the protein of interest (eIF4A) remaining in the soluble fraction are then measured by western blot. The principle of CETSA is similar to differential scanning fluorimetry (DSF), in that thermal stability and solubility of a protein increases upon binding a ligand.\nCellular Thermal Shift Assay (CETSA). A549 cells were seeded into wells in 6-well plates and on the following day were exposed to 28 or silvestrol (100 nM) for 90 min. Cells were harvested, resuspended in 50 μL DMEM, and dispensed into thin-walled PCR tubes. Cells were subjected to 3 min of heat at 55° C. in a thermocycler (miniPCR). After heating, cells were left to cool for 3 min and then snap-frozen on dry ice. Cells were subjected to 3 rapid freeze thaws with 15 seconds of vortexing after each thaw. After the first thaw, 1 μL of a dissolved Pierce protease inhibitor tablet (ThermoFisher—A32963) was added to the cell lysate. Cell lysates were centrifuged at 20,000×g for 20 min. […] All immunoblot images were taken using the Azure 600 imaging system (Azure Biosystems) and analyzed using ImageJ 1.51s (NIH). […]"}, "eIF4A T158V mutant": {"target": "T2, eIF4A T158V mutant (Homo sapiens, UniProt P60842, T158V)", "T2 construct": "6xHis with TEV protease site (N, cleaved yes); made in house; host or cells: E. coli BL21-CodonPlus", "T2 sequence (P60842 whole entry T158V)": "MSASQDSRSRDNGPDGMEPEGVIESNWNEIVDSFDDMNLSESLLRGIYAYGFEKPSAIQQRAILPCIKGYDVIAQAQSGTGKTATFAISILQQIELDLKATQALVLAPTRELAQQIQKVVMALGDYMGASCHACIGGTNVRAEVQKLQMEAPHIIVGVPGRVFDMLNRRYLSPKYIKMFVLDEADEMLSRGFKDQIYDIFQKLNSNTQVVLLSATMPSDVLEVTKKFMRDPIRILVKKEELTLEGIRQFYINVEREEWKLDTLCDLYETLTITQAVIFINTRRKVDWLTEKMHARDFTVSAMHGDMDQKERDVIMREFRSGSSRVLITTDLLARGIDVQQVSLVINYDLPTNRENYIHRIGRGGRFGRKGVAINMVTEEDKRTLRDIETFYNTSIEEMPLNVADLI", "experiment": "malachite green ATPase assay, eIF4A mutant", "format": "biochemical", "protocol": "Furthermore, T158 is predicted to form a hydrogen bond to the […] of the 6-nitro quinoline substitution of compound 28. The ability of the 6-nitro group to form two strong interactions with the binding pocket of eIF4A is the most likely explanation for why this substitution afforded 28 such a large gain in potency for compound 28 compared to other analogs in the inhibitor series. Mutagenesis and recombinant production of mutant eIF4A protein was performed to confirm the docking pose and predicted interactions between compound 28 and its eIF4A binding pocket (FIG. 6D).\nATPase assay. Recombinant WT or mutant eIF4A was added to a clear bottom 384 well plate (Greiner) in ATPase buffer (20 mM Tris pH 7.4, 80 mM KCl, 2.5 mM MgCl2, 1 mM DTT, 1% glycerol). Compounds were added and the plate was incubated at 37° C. for 20 min. ATP/RNA solution was added to afford a 20 μL per well reaction volume with 750 nM eIF4A, 250 μM ATP, and 0.25 mg/mL Yeast RNA (Sigma) for the initial screen and dose responses, and varying concentrations of ATP and RNA for the kinetic assays. The plate was incubated for 4 h at 37° C. for the initial screen and dose responses, and at seven time points (1 hour-7 hours) for kinetic assays. 0.04% v/v (final concentration) Tween-20 was added to a Malachite Green solution, and the Malachite Green (40 μL per well) was added. The solution was incubated for 5 minutes at room temperature and Absorbance at 660 nm was read on a SpectraMax iD5 plate reader (Molecular Devices)."}}, "note": "Entries after “also recorded” stand apart in the source; their conditions may differ."}
{"smiles": "CCCCc1ccc(-c2ccc(-c3cc(C(=O)O)c4cc([N+](=O)[O-])ccc4n3)o2)cc1", "note": "[Compound 28, 2-(5-(4-butylphenyl)furan-2-yl)-6-nitroquinoline-4-carboxylic acid]", "values": [{"measurement": "competition of MANT-ATP off eIF4A", "setting": "eIF4A [1]", "result": "not an ATP-competitive inhibitor"}, {"measurement": "eIF4A thermal stability / melting temperature (TSA)", "setting": "eIF4A [2]", "result": "increased eIF4A stability"}, {"measurement": "thermal stability of eIF4A in cells (CETSA)", "setting": "eIF4A [3]", "result": "dose-dependent increase in thermal stability of eIF4A; also recorded: engages eIF4A in cells"}, {"measurement": "potency against eIF4A mutant in ATPase assay", "setting": "eIF4A T158V mutant", "result": "lost all potency"}]}
